This note sets out measurements from patent publication US11260049B2, “TRPV4 antagonists” (GlaxoSmithKline Intellectual Property (No. 2) Limited, priority 2016, dated 2022).

The target of the experiment is human TRPV4 (Homo sapiens (Human), UniProt Q9HBA0). The experiment can be described thus: FLIPR assay for hTRPV4 expressed in BHK cells. The conditions noted are these: inhibition of Agonist Compound (EC80)-induced calcium signal; BHK/AC9 cells expressing human TRPV4; read-out: IC50. The experiment is classed as cell-based. The method in brief:
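BHK/AC9 cells transduced with BacMam human TRPV4 (MOI 78), 15,000 cells/well, cultured 24 h at 37 °C. Loaded with 2 μM Fluo-4 AM and 500 μM Brilliant Black in HBSS for 1–1.5 h at room temperature in the dark. Intracellular calcium influx monitored by fluorescence.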

As a reminder, the IC50 is the midpoint of a concentration-inhibition curve.

Sequence of human TRPV4 (Q9HBA0 whole entry): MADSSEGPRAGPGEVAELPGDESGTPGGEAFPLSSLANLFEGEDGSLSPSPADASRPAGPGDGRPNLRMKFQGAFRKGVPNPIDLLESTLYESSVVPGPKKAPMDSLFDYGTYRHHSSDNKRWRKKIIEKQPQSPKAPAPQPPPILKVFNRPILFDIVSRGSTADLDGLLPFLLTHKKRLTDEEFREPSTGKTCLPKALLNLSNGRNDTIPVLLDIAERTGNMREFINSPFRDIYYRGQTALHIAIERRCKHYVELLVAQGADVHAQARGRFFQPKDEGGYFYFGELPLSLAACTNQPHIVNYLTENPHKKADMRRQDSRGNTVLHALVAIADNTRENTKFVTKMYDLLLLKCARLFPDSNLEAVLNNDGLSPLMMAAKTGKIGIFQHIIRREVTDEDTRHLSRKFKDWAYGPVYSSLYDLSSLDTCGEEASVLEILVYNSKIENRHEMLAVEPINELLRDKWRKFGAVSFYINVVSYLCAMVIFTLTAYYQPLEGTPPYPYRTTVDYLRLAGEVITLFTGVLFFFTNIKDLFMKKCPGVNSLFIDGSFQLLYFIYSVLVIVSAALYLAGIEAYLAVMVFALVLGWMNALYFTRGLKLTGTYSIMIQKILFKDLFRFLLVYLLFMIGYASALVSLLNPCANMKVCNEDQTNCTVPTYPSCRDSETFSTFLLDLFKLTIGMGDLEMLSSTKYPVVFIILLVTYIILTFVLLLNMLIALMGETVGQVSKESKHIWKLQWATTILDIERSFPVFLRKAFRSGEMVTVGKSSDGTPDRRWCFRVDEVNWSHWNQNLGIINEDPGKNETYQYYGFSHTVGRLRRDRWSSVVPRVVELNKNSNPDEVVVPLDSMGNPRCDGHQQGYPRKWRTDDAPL

Turning to `Cc1cc(C#N)ccc1S(=O)(=O)N1C[C@H](S(=O)(=O)c2ccc(Cl)cc2)[C@](O)(CO)C1` [Example 20, 4-(((3R,4S)-4-((4-chlorophenyl)sulfonyl)-3-hydroxy-3-(hydroxymethyl)pyrrolidin-1-yl)sulfonyl)-3-methylbenzonitrile], the IC50 fell in the range of 0.01 to 0.1 µM.
For `N#Cc1ccc(S(=O)(=O)[C@H]2CN(S(=O)(=O)c3ccc(CF)cc3Cl)C[C@@]2(O)CO)cc1` [Example 44, 4-(((3S,4R)-1-((2-chloro-4-(fluoromethyl)phenyl)sulfonyl)-4-hydroxy-4-(hydroxymethyl)pyrrolidin-3-yl)sulfonyl)benzonitrile] the value was 0.01 to 0.1 µM.
In the case of `N#Cc1cc(F)c(S(=O)(=O)[C@H]2CN(S(=O)(=O)c3ccc(Cl)cc3Cl)C[C@@]2(O)CO)cc1F` [Example 95, 4-(((3S,4R)-1-((2,4-dichlorophenyl)sulfonyl)-4-hydroxy-4-(hydroxymethyl)pyrrolidin-3-yl)sulfonyl)-2,5-difluorobenzonitrile] it was 0.01 to 0.1 µM.
In the case of `CNC[C@]1(O)CN(S(=O)(=O)c2ccc(C#N)cc2Cl)C[C@@H]1S(=O)(=O)c1ccc(Cl)cc1` [Example 124, 3-chloro-4-(((3S,4S)-4-((4-chlorophenyl)sulfonyl)-3-hydroxy-3-((methylamino)methyl)pyrrolidin-1-yl)sulfonyl)benzonitrile], the IC50 fell in the range of 0.0001 to 0.01 µM.
For `N#Cc1ccc(S(=O)(=O)[C@H]2CN(S(=O)(=O)c3ccc(Cl)cc3C#N)C[C@@]2(O)CO)cc1` [Example 84, 5-chloro-2-(((3R,4S)-4-((4-cyanophenyl)sulfonyl)-3-hydroxy-3-(hydroxymethyl)pyrrolidin-1-yl)sulfonyl)benzonitrile] the value was 0.0001 to 0.01 µM; for `N#Cc1ccc(S(=O)(=O)N2C[C@H](S(=O)(=O)c3ccc(C(F)(F)F)cc3)[C@](O)(CO)C2)c(Cl)c1` [Example 54, 3-chloro-4-(((3R,4S)-3-hydroxy-3-(hydroxymethyl)-4-((4-(trifluoromethyl)phenyl)sulfonyl)pyrrolidin-1-yl)sulfonyl)benzonitrile], 0.0001 to 0.01 µM.
As to `N#Cc1ncccc1S(=O)(=O)N1C[C@H](S(=O)(=O)c2ccc(Cl)cc2)[C@](O)(CO)C1` [Example 111, 3-(((3R,4S)-4-((4-chlorophenyl)sulfonyl)-3-hydroxy-3-(hydroxymethyl)pyrrolidin-1-yl)sulfonyl)picolinonitrile], the IC50 lay within 0.01 to 0.1 µM.
In the case of `O=S(=O)(c1ccc(Cl)c(Cl)c1)[C@H]1CN(S(=O)(=O)c2ccc(Cl)cc2Cl)C[C@]1(O)CO` [Example 115, (3S,4S)-1-((2,4-dichlorophenyl)sulfonyl)-4-((3,4-dichlorophenyl)sulfonyl)-3-(hydroxymethyl)pyrrolidin-3-ol] it was 0.01 to 0.1 µM; in that of `N#Cc1ccc(S(=O)(=O)N2C[C@H](S(=O)(=O)c3ccc(C(F)(F)F)nc3)[C@](O)(CO)C2)c(Br)c1` [Example 39, 3-bromo-4-(((3R,4S)-3-hydroxy-3-(hydroxymethyl)-4-((6-(trifluoromethyl)pyridin-3-yl)sulfonyl)pyrrolidin-1-yl)sulfonyl)benzonitrile], 0.01 to 0.1 µM; in that of `O=S(=O)(c1ccc(Cl)nc1)[C@H]1CN(S(=O)(=O)c2ccc(C(F)(F)F)cc2Cl)C[C@@]1(O)CO` [Example 99, (3R,4S)-1-((2-chloro-4-(trifluoromethyl)phenyl)sulfonyl)-4-((6-chloropyridin-3-yl)sulfonyl)-3-(hydroxymethyl)pyrrolidin-3-ol], 0.01 to 0.1 µM.
For `O=S(=O)(c1ccc(C(F)(F)F)cn1)[C@H]1CN(S(=O)(=O)c2ccc(Cl)cc2Cl)C[C@@]1(O)CO` [Example 116, (3R,4S)-1-((2,4-dichlorophenyl)sulfonyl)-3-(hydroxymethyl)-4-((5-(trifluoromethyl)pyridin-2-yl)sulfonyl)pyrrolidin-3-ol] the value was 0.01 to 0.1 µM; for `N#Cc1ccc(S(=O)(=O)N2C[C@H](S(=O)(=O)c3ccc(C(F)(F)F)nc3)[C@](O)(CO)C2)c(Cl)c1` [Example 26, 3-chloro-4-(((3R,4S)-3-hydroxy-3-(hydroxymethyl)-4-((6-(trifluoromethyl)pyridin-3-yl)sulfonyl)pyrrolidin-1-yl)sulfonyl)benzonitrile], 0.01 to 0.1 µM; for `N#Cc1ccc(S(=O)(=O)N2C[C@H](S(=O)(=O)c3ccc(C(F)(F)F)cn3)[C@](O)(CO)C2)c(OC2CC2)c1` [Example 61, 3-cyclopropoxy-4-(((3R,4S)-3-hydroxy-3-(hydroxymethyl)-4-((5-(trifluoromethyl)pyridin-2-yl)sulfonyl)pyrrolidin-1-yl)sulfonyl)benzonitrile], 0.01 to 0.1 µM.
`O=S(=O)(c1ccc(Cl)cc1)[C@H]1CN(S(=O)(=O)c2ccc(CF)cc2Cl)C[C@@]1(O)CO` [Example 43, (3R,4S)-1-((2-chloro-4-(fluoromethyl)phenyl)sulfonyl)-4-((4-chlorophenyl)sulfonyl)-3-(hydroxymethyl)pyrrolidin-3-ol]: the IC50 was 0.01 to 0.1 µM.
For `COc1ccc(S(=O)(=O)N2C[C@H](S(=O)(=O)c3ccc(C#N)cc3)[C@](O)(CO)C2)c(C(F)(F)F)c1` [Example 31, 4-(((3S,4R)-4-hydroxy-4-(hydroxymethyl)-1-((4-methoxy-2-(trifluoromethyl)phenyl)sulfonyl)pyrrolidin-3-yl)sulfonyl)benzonitrile] the value was 0.01 to 0.1 µM; for `N#Cc1ccc(S(=O)(=O)[C@H]2CN(S(=O)(=O)c3ccc(C(F)(F)F)cc3Cl)C[C@@]2(O)CO)cc1Cl` [Example 101, 2-chloro-4-(((3S,4R)-1-((2-chloro-4-(trifluoromethyl)phenyl)sulfonyl)-4-hydroxy-4-(hydroxymethyl)pyrrolidin-3-yl)sulfonyl)benzonitrile], 0.01 to 0.1 µM.
Regarding `N#Cc1ccc(S(=O)(=O)N2C[C@H](S(=O)(=O)c3ncc(Cl)s3)[C@](O)(CO)C2)c(Cl)c1` [Example 73, 3-chloro-4-(((3R,4S)-4-((5-chlorothiazol-2-yl)sulfonyl)-3-hydroxy-3-(hydroxymethyl)pyrrolidin-1-yl)sulfonyl)benzonitrile], the IC50 was in the range of 0.01 to 0.1 µM.
`N#Cc1ccc(S(=O)(=O)[C@H]2CN(S(=O)(=O)c3ccccc3Cl)C[C@@]2(O)CO)cc1F` [Example 11, 4-(((3S,4R)-1-((2-chlorophenyl)sulfonyl)-4-hydroxy-4-(hydroxymethyl)pyrrolidin-3-yl)sulfonyl)-2-fluorobenzonitrile]: the concentration for half-maximal inhibition (IC50) is 0.01 to 0.1 µM.
For `Cc1ccc(S(=O)(=O)N2C[C@H](S(=O)(=O)c3ccc(C#N)c(F)c3)[C@](O)(CO)C2)c(Cl)c1` [Example 13, 4-(((3S,4R)-1-((2-chloro-4-methylphenyl)sulfonyl)-4-hydroxy-4-(hydroxymethyl)pyrrolidin-3-yl)sulfonyl)-2-fluorobenzonitrile] the value was 0.0001 to 0.01 µM.
Regarding `O=S(=O)(c1ccc(Cl)c(F)c1)[C@H]1CN(S(=O)(=O)c2ccc(C(F)(F)F)cc2Cl)C[C@]1(O)CO` [Example 78, (3S,4S)-4-((4-chloro-3-fluorophenyl)sulfonyl)-1-((2-chloro-4-(trifluoromethyl)phenyl)sulfonyl)-3-(hydroxymethyl)pyrrolidin-3-ol], the IC50 fell in the range of 0.01 to 0.1 µM.
For `N#Cc1ccc(S(=O)(=O)[C@H]2CN(S(=O)(=O)c3ccc(C(F)(F)F)cc3F)C[C@@]2(O)CO)cc1F` [Example 69, 2-fluoro-4-(((3S,4R)-1-((2-fluoro-4-(trifluoromethyl)phenyl)sulfonyl)-4-hydroxy-4-(hydroxymethyl)pyrrolidin-3-yl)sulfonyl)benzonitrile] the value was 0.01 to 0.1 µM.
